For data set [1], the target named is T1, MDM2-p53 interaction (Homo sapiens, UniProt Q00987).
T1 construct: made in house; host or cells: in vitro translation (cell-free)
The experiment in a line: Preliminary screening, in vitro MDM2-p53 binding assay. As to conditions: preliminary screening studies; read-out: IC50 (inhibition of the MDM2-p53 interaction). An excerpt: Studies of the p53 binding pocket on the MDM2 protein guided the nature of the molecules synthesised. Thus the present invention provides small molecule inhibitors of MDM2-p53 interaction based on an isoindolinone scaffold.

Data set [2] addresses T1, MDM2-p53 interaction. In words: ELISA assay of MDM2-p53 complex formation (MDM2 binding to immobilised IP3 p53-derived peptide). To be noted: n=3 independent determinations; 5% DMSO; interpolated from three standard concentrations. The protocol:
Streptavidin-coated 96-well plates are used to immobilise a biotin-tagged IP3 p53-derived peptide ([…]). This is a peptide analogue derived from the p53 binding site for MDM2 ([…]). […] Aliquots of MDM2 generated by in vitro translation are pre-incubated for 20 minutes at room temperature (i.e. 20-25° C.) with test compounds and controls, before transfer into the IP3-coated 96-well plates. Following a further incubation period of 90 minutes at 4° C., the plates are washed to remove unbound MDM2 and the residual bound MDM2 is detected using a primary monoclonal antibody (MDM2 Ab-1, clone IF2, Oncogene Research Products) and HRP-conjugated secondary antibody (Goat anti-mouse, Dako PO447). The HRP (horseradish peroxidase) is measured by a chemiluminescence reaction using standard reagents (Amersham Pharmacia™ RPN 2106) and an automatic injection 96-well plate illuminometer (EG & G Berthold Microplate LB 96V).
Compound NU8231 is currently included as a standard “lead compound” positive control. […] The AP peptide is included as a positive control for biological evaluation of the isoindolinones in the cell free binding assays.
All compounds are dissolved in DMSO and tested at three standard concentrations (initially 20 μM, 100 μM and 500 μM) in the presence of a fixed final concentration of 5% DMSO. The percentage inhibition of complex formation is expressed relative to a DMSO only control and an IC50, defined as the concentration required for 50% inhibition of MDM2-p53 complex formation, determined by interpolation.
For orientation: An ELISA detects its analyte on a solid surface through an enzyme-linked reagent.

For data set [3], the system named is SJSA cells (MDM2 amplified). The experiment in a line: Western blot of SJSA cells treated with compound. It is filed as cell-based. As to conditions: SJSA cells, 5, 10 and 20 μM, lysed at 6 hours. As to the method: Osteosarcoma cell line SJSA-1 was plated out in 55 mm dishes at a density of 2.5×10^5 cells in 3 mL of RPMI 1640 medium (Sigma) supplemented with 10% foetal bovine serum (FBS, Gibco), 1% (v/v) HEPES (Gibco), 1% (v/v) sodium pyruvate (Gibco) and 1.25 g/500 ml glucose (Sigma) for 48 hours in a 37° C. humidified incubator (Sanyo, MCO 20AIC) at a CO2 concentration of 5%.
The dishes were treated with NU8231 at a final concentration of 5, 10, and 20 μM (at 1% DMSO) together with a 1% DMSO and an untreated control sample for 6 hours. The medium was then aspirated and the dishes were washed with 3 mL of cold PBS. The cells were then lysed in 40 μL of Sodium Dodecyl Sulphate (SDS, Sigma) lysis buffer, boiled at 100° C. for 10 minutes before sonication for 3×5 seconds at 20 microns (Soniprep 150, MSE).
The protein concentration for each of the samples was then determined using BCA Protein Assay Kit (Pierce), and 1:1 loading buffer consisting of β-mercaptoethanol (Sigma) and 0.5% bromophonol-blue (Sigma) were added to 40 μg of protein and made up to a final volume of 30 μL and boiled for 5 minutes at 100° C.
The samples were then loaded onto a precast 4-20% gradient polyacrylamide Tris-Glycine gels (15 wells, 1.5 mm thickness, Invitrogen Life Technologies), along with a pre-stained marker protein (SeeBlue, Invitrogen). The Gels were processed in Novex XCell (Invitrogen) at 180V and blotted onto a High Bond C membrane (Amersham Life Science) overnight at 30V.
The membrane was then blocked for one hour at room temperature in TBS-Tween containing 5% non-fat milk (TBST-M) followed by incubation with primary antibodies for MDM2 (MDM2-Ab1, 1:500, Oncogene), p53 (p53-D07, 1:1000, Novacastra), p21 (p21 Ab1, 1:100, Oncogene) and Actin (Actin AC40, 1:1000, Sigma) in PBST-M for 1 hour.
The membrane was then washed three times in TBST (15 minutes per wash) and then incubated for an additional 1 hour with a anti mouse or a rabbit horseradish peroxidase (HRP) secondary antibody (Dako, 1:1000) in PBST-M followed by a final wash consisting of six washes with TBST at 5 minutes per wash. […]
On the technique in general: A western blot detects proteins with antibodies after separation by electrophoresis.

The target of a further data set is MDM2 (Homo sapiens, UniProt Q00987). To be noted: Stoll et al 2001; cited from earlier work.
Chain of MDM2 (Q00987 whole entry): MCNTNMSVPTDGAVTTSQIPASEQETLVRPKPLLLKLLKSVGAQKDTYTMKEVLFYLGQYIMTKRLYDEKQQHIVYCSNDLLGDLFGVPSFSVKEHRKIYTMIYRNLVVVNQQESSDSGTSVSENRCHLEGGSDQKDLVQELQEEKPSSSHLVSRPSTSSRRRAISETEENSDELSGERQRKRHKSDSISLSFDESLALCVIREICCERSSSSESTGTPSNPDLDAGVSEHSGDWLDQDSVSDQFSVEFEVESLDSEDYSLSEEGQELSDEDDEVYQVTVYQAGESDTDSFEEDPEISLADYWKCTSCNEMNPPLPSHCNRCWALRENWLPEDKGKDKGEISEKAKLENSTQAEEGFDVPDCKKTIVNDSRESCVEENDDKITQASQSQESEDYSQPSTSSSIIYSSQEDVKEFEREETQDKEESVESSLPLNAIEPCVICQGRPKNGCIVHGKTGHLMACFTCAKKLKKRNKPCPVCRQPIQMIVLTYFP

Where no end group is shown, it is not given here.

T1 sequence (Q00987 whole entry): as above

By IC50 is commonly meant the concentration needed to halve the response being measured. For `CCCOC1(c2ccccc2)c2ccccc2C(=O)N1Cc1ccccc1` (centres unmarked) [NU8001, 2-benzyl-3-phenyl-3-propoxy isoindolin-1-one], at MDM2-p53 interaction [1], the IC50 was around 200 µM.

With `CCCNC1(c2ccccc2)c2ccccc2C(=O)N1Cc1ccccc1` (centres unmarked) [NU8006, 2-benzyl-3-phenyl-3-(propylamino)isoindolin-1-one], the IC50 at MDM2-p53 interaction [1] was around 200 µM.

For the molecule `CCCOC1(c2ccccc2)c2ccccc2C(=O)N1CCC` (centres unmarked) [NU8009, 2-propyl-3-phenyl-3-propoxy isoindolinin-1-one], the IC50 on MDM2-p53 interaction [1] was around 200 µM.

Usually melting point stands for the temperature of the solid-liquid transition. Molecule `CCCN1C(=O)c2ccccc2C1(OCc1ccc(C(C)(C)C)cc1)c1ccc(Cl)cc1` (centres unmarked) [NU8221, 3-(4-tert-Butyl-benzyloxy)-3-(4-chlorophenyl)-2-propyl-2,3-dihydroisoindolin-1-one] had a melting point of 116.5 to 117.6 °C. In addition, the IC50 on MDM2-p53 interaction [2] is 187 ± 38 µM.

`CCCN1C(=O)c2ccccc2C1(OCc1ccc(C(C)(C)C)cc1)c1ccccc1` (centres unmarked) [NU8223, 3-(4-tert-Butylbenzyloxy)-3-phenyl-2-propyl-2,3-dihydroisoindolin-1-one] had a melting point of 118.7 to 119.9 °C. In addition, the IC50 at MDM2-p53 interaction [2] is above 500 µM.

`CCCN1C(=O)c2ccccc2C1(OCc1cc(OC)c(O)c(OC)c1)c1ccc(Cl)cc1` (centres unmarked) [NU8231, 3-(4-Chlorophenyl)-3-(4-hydroxy-3,5-dimethoxybenzyloxy)-2-propyl-2,3-dihydroisoindolin-1-one]: in data set [3], the “MDM2 level (Western blot)” value is listed as “dose dependent increase”, the “p21 level (Western blot)” value is given as “dose dependent increase” and the “p53 levels (Western blot)” value is recorded as “No change”.

Consider “IP3: biotin-tagged p53-derived peptide (MPRFMDYWEGLN), analogue derived from the p53 binding site for MDM2 (also: biotin tag, place not given here)”, for which the “affinity for MDM2 relative to the native p53 peptide” value with MDM2 was “higher affinity for MDM2 than the native peptide”.

The values are drawn from patent publication US8258175B2, “Isoindolin-1-one derivatives” (Cancer Research Technology Limited, priority 2004, dated 2012).
